According to patent EP1957493B1, “8-AZABICYCLO[3.2.1]OCTANE DERIVATIVES USEFUL AS MONOAMINE REUPTAKE INHIBITORS” (N.V. Organon, priority 2005, dated 2007):
Like-named read-outs stand apart in the source and are kept apart here.

Key:
Assay type in all cases: cell-based
[1] = target: T1, human dopamine transporter (hDAT) (Homo sapiens, UniProt Q01959); test: Assay of monoamine uptake: inhibition of dopamine uptake
T1 construct: expressed in transfected cells
Description: (§1) The in vitro test for the inhibition of dopamine and serotonin uptake was performed in Chinese Hamster Ovary cells expressing the human dopamine transporter (hDAT) or the human serotonin transporter (hSERT). The in vitro test for the inhibition of noradrenaline uptake was performed in Madin Darby Canine Kidney Cells (MDCK) expressing the human noradrenaline transporter (hNET).
(§2) Briefly, cell lines stably overexpressing the appropriate human transporter were propagated and plated according to standard cell culture techniques. Following plating, cells were left to adhere for either one or two days. A 6-point serial dilution (normally 1 E-5M to 1E-10M) of test and reference compounds was prepared, added to the washed cells and incubated for 5 minutes at ambient temperature for dopamine or serotonin transporter overexpressing and 37°C for noradrenaline overexpressing cells. Next, a final concentration of 20 nM of appropriate neurotransmitter (mixture of [^3H]-neurotransmitter and non-labelled neurtoransmitter) was added and the cells were incubated for three or five minutes at ambient temperature for dopamine or serotonin transporter overexpressing cells or ten minutes at 37°C for noradrenaline overexpressing cells. Following termination of the assay, Microscint-20 was added directly to the cells and the amount of radioactivity taken up by the cells was estimated by scintillation counting.
(§3) pEC50 values indicating inhibition of monoamine uptake were calculated using standard curve fitting techniques.

[2] = target: T2, human serotonin transporter (hSERT) (Homo sapiens, UniProt P31645); test: Assay of monoamine uptake: inhibition of serotonin uptake
T2 construct: expressed in transfected cells
T2 sequence (P31645 whole entry): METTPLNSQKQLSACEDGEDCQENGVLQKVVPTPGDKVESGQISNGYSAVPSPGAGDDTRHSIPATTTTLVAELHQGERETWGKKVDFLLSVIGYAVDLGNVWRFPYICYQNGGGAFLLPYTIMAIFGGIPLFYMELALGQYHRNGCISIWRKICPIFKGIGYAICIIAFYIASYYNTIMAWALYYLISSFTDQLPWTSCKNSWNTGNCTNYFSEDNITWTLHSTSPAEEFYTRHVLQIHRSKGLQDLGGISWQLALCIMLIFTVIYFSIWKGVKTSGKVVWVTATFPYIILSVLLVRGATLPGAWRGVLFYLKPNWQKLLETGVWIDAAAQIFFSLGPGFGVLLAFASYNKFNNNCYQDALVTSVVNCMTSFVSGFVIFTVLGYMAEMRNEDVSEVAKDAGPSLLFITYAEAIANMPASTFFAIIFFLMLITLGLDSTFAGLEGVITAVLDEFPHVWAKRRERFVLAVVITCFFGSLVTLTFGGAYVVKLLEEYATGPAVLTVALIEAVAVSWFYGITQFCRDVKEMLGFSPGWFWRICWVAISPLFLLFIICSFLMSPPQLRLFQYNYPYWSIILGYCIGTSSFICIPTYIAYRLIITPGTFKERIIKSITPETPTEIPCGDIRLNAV
Description: as §1, §2, §3

[3] = target: T3, human noradrenaline transporter (hNET) (Homo sapiens, UniProt P23975); test: Assay of monoamine uptake: inhibition of noradrenaline uptake
T3 construct: expressed in transfected cells
T3 sequence (P23975 whole entry): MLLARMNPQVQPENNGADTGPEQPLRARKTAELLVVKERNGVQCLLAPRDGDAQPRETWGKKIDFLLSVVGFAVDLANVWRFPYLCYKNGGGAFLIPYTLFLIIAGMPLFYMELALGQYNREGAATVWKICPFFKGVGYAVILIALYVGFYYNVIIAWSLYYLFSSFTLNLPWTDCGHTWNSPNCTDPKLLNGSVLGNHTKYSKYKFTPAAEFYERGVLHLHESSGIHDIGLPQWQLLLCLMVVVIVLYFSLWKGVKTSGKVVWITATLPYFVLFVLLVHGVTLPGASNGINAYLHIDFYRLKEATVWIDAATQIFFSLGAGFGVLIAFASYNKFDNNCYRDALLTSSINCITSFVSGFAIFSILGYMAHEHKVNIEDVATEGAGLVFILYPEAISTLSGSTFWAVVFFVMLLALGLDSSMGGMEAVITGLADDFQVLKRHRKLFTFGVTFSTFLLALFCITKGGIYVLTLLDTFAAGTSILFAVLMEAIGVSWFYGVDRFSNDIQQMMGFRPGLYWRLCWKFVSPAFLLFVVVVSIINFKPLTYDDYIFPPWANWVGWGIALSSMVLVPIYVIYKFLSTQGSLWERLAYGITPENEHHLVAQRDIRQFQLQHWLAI
Description: as §1, §2, §3

[4] = inhibition of dopamine uptake, Chinese Hamster Ovary cells expressing hDAT, 20 nM neurotransmitter ([3H]-labelled and non-labelled), ambient temperature, read-out: hDAT
[5] = inhibition of serotonin uptake, Chinese Hamster Ovary cells expressing hSERT, 20 nM neurotransmitter ([3H]-labelled and non-labelled), ambient temperature, read-out: hSERT
[6] = inhibition of noradrenaline uptake, Madin Darby Canine Kidney Cells (MDCK) expressing hNET, 20 nM neurotransmitter ([3H]-labelled and non-labelled), 37°C, read-out: hNET

T1 sequence (Q01959 whole entry): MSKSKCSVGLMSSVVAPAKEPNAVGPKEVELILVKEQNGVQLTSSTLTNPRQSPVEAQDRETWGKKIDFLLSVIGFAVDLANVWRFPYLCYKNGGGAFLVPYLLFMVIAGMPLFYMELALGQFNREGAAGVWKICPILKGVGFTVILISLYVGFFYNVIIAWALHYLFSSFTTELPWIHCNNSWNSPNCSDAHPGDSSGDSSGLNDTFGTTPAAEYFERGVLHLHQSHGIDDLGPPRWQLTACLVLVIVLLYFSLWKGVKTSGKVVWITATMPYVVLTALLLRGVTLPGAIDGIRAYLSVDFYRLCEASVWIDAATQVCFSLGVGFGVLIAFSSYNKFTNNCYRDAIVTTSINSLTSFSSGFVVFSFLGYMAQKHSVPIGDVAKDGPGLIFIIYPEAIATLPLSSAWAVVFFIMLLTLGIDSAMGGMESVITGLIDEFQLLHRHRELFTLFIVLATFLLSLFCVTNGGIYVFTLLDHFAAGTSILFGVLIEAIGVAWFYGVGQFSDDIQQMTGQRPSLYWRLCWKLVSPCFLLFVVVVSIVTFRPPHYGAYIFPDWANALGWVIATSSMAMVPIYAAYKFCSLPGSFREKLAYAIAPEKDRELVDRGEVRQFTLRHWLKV

| SMILES | EC50 [1] | EC50 [2] | EC50 [3] | EC50 [1, 4] | EC50 [2, 5] | EC50 [3, 6] |
| --- | --- | --- | --- | --- | --- | --- |
| c1ccc(Oc2cccc(OC3CC4CCC(C3)N4)c2)cc1 (stereo not drawn) [Example 111.5, 3-endo-(3-Phenoxyphenoxy)-8-azabicyclo[3.2.1]octane] | < 0.1 µM | > 1 µM | 0.1 to 1 µM | – | – | – |
| N#Cc1ccc(-c2cc(C#N)cc(OC3CC4CCC(C3)N4)c2)nc1 (stereo not drawn) [Example IX.3, exo 6-(3-(8-Azabicyclo[3.2.1]oct-3-yloxy)-5-cyanophenyl)nicotinonitrile] | – | – | – | > 1 µM | < 0.1 µM | > 1 µM |
| FC(F)(F)c1ccccc1-c1cccc(OC2CC3CCC(C2)N3)c1 (stereo not drawn) [IV.8, 3-exo-(2'-Trifluoromethylbiphenyl-3-yloxy)-8-azabicyclo[3.2.1]octane] | – | – | – | > 1 µM | 0.1 to 1 µM | < 0.1 µM |
| COc1cc(Oc2ccccc2)cc(OC2CC3CCC(C2)N3)c1F (stereo not drawn) [IV.9, 3-exo-(2-Fluoro-3-methoxy-5-phenoxyphenoxy)-8-azabicyclo[3.2.1]octane] | – | – | – | < 0.1 µM | > 1 µM | < 0.1 µM |
| Clc1cc(Oc2ccccc2)cc(O[C@@H]2C[C@H]3CC[C@@H](C2)N3)c1 [IV.19, 3-exo-(3-Chloro-5-phenoxyphenoxy)-8-azabicyclo[3.2.1]octane] | – | – | – | < 0.1 µM | > 1 µM | < 0.1 µM |
| FC(F)(F)c1ccc(OC2CC3CCC(C2)N3)cc1-c1ccccc1 (stereo not drawn) [VI.3, 3-exo-(6-Trifluoromethylbiphenyl-3-yloxy)-8-azabicyclo[3.2.1]octane] | – | – | – | > 1 µM | 0.1 to 1 µM | > 1 µM |
| N#Cc1ccc(-c2cc(C#N)cc(OC3CC4CCC(C3)N4)c2)cc1 (stereo not drawn) [VI.8, exo 5-(8-Azabicyclo[3.2.1]oct-3-yloxy)-biphenyl-3,4'-dicarbonitrile] | – | – | – | > 1 µM | < 0.1 µM | > 1 µM |
